Test results: patent publication US9643969B2, “(aza)indolizine derivative and pharmaceutical use thereof” (KISSEI PHARMACEUTICAL CO., LTD., priority 2010, dated 2017)

How the values were obtained:
[1] = biological target: T1, Xanthine oxidase (from bovine milk) (Bos taurus, UniProt P80457); assay: Xanthine oxidase inhibitory activity; assay type: biochemical; details: xanthine 200 μM added at 100 μL/well, 10 minutes at room temperature, absorbance at 290 nm
T1 construct: Xanthine oxidase (from bovine milk, manufactured by Sigma); purchased Sigma; host or cells: bovine milk
Method: Xanthine Oxidase Inhibitory Activity
(1) Preparation of Test Compounds
Test compounds were dissolved in dimethyl sulfoxide (DMSO) (manufactured by Wako pure chemical) at 40 mM concentration and then diluted to intended concentrations with phosphate-buffered saline (PBS).
(2) Method of Measurement
Xanthine oxidase (from bovine milk, manufactured by Sigma) was prepared with phosphate-buffered saline (PBS) at 0.02 units/mL, and then the solution was added to 96-well plates at 50 μL/well. In addition, test compounds diluted with PBS were added at 50 μL/well. Xanthine (manufactured by Wako pure chemical) at 200 μM prepared with PBS was added at 100 μL/well, and the reaction was conducted for 10 minutes at room temperature. Absorbance at 290 nm was measured by using a microplate reader SpectraMax Plus 384 (manufactured by Molecular device). The absorbance under a condition without xanthine is 0%, and control without test compounds is 100%. Fifty % inhibitory concentration of a test compound (IC50) was calculated (Table 4). “Ex. No” in the table indicates Example number.

Acute toxicity test = assay type: in vivo; details: 300 mg/kg orally, male ICR mice, 24 hours after administration
Method: Test compounds of Examples 2 and 12 (300 mg/kg) suspended in 0.5% methylcellulose solution were orally administered to male ICR mice (7-week-old, 5 mice per group), and the general condition during 24 hours after administration was observed.

human URAT1 = biological target: T2, human URAT1 (Homo sapiens, UniProt Q96S37); assay: Inhibitory activity of uric acid transport with human URAT1-expressing cells; assay type: cell-based; details: 10 μM test compound; URAT1-expressing HEK293 cells; 14C uric acid 50 μM, 2 minutes at 37° C.; read-out: percent inhibition of uric acid uptake
T2 construct: expressed in transfected cells; host or cells: HEK293 cells
T2 sequence (Q96S37 1-553): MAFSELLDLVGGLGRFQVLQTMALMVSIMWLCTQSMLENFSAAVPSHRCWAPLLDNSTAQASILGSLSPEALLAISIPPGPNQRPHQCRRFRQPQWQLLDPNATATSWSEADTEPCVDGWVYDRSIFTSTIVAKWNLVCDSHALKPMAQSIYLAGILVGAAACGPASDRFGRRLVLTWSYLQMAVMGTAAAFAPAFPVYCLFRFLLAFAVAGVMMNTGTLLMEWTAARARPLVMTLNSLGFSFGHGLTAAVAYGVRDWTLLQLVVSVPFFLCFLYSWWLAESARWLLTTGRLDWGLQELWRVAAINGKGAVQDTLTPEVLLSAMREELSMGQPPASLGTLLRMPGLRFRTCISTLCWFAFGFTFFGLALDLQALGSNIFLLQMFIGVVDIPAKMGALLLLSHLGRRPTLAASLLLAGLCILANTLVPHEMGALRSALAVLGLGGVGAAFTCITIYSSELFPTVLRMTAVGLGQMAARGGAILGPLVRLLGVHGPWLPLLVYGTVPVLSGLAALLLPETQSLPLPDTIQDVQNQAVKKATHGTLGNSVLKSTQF
Method: Inhibitory Activity of Uric Acid Transport with Human URAT1-Expressing Cells
(1) Cells Used in the Test
URAT1-expressing HEK293 cells (HEK293 cells transfected with vector containing human URAT1 cDNA) and control cells (HEK293 cells transfected with vector alone) were used.
URAT1-expressing cells and control cells were seeded in collagen I-coated 24-well plates (manufactured by BD FALCON) at 1 to 4×10^5 cells/well, and cultured in CO2 incubator (37° C., CO2: 5%) for 1 to 3 days, and then the following measurement of uric acid transport was conducted. In addition, Dulbecco's Modified Eagle Medium (manufactured by Invitrogen) containing 9% fetal bovine serum (manufactured by Invitrogen), antibiotic-antimycotic (manufactured by Invitrogen) and 2 mmol/L L-glutamine were used for the culture.
(2) Preparation of Test Compounds
^14C-labeled uric acid (^14C uric acid) (manufactured by American Radiolabeled Chemicals, Inc.) was dissolved in Hanks' balanced salt solution (HBSS) (manufactured by Invitrogen) to prepare HBSS containing ^14C uric acid at 50 μM. Test compounds were dissolved in DMSO and then diluted to 1000-fold with the prepared HBSS containing ^14C uric acid above to prepare ^14C uric acid solution containing the indicated concentration of test compounds (final concentration of DMSO: 0.1%). ^14C uric acid solution containing 0.1% DMSO was prepared as a control.
(3) Measurement of Uric Acid Transport
After the medium was removed from the plates in which cells were seeded, and 1 mL of HBSS was added to the cells. After the HBSS was removed, 0.3 mL of HBSS was newly added to the cells, which were incubated at 37° C. for 15 minutes. After the HBSS was removed, 0.3 mL of ^14C uric acid solution containing 0.1% DMSO or test compounds was added to the cells, which were then incubated at 37° C. for 2 minutes. After the incubation, the solution was removed, and the cells were washed once with 1 mL of ice-cold phosphate-buffered saline containing 0.2% BSA, and washed twice with 1 mL of ice-cold PBS. After the PBS was removed, the cells were lysed by addition of 0.5 mL of 0.1 mol/L NaOH aqueous solution for each well. The cell lysates (0.3 mL/well) were transferred into glass vials, and mixed with 10 mL of a scintillator (Hionic-Fluor, manufactured by Perkin Elmer). The radioactivity was measured by means of a liquid scintillation counter.
(4) Protein Determination
Protein concentration in the cell lysates was determined by BCA Protein Assay Kit (manufactured by Pierce) and then amount of protein (mg/well) was calculated.
(5) Calculation of the Percent Inhibition of Uric Acid Uptake for Each Compound
Uric acid uptake activity in each well was calculated by the following formula. Uric acid uptake activity (p mol/mg protein)=radioactivity (dpm/well)/[amount of protein (mg/well)×concentration of radioactivity in HBSS containing ^14C uric acid (dpm/p mol)]
Percent inhibition was calculated according to the following formula. Percent inhibition (%)=[1−(B−C)/(A−C)]×100 • A: Uric acid uptake activity in URAT1-expressing HEK293 cells in the presence of 0.1% DMSO • B: Uric acid uptake activity in URAT1-expressing HEK293 cells in the presence of test compounds • C: Uric acid uptake activity in control cells in the presence of 0.1% DMSO (6) Results

[2] = Hypouricemic effect (serum uric acid levels in rats); assay type: in vivo; details: oral administration at 1 mg/kg; male CD (SD) IGS rats; serum at 2 hours after administration
Method: (1) Method of Measurement
Test compounds (1 mg/kg) suspended in 0.5% methylcellulose solution were orally administered to overnight fasted male CD (SD) IGS rats (5-week-old, Charles River Japan). At 2 hours after administration, blood was collected under ether anesthesia from abdominal aorta, and serum was separated according to a general method. Serum uric acid levels were determined by use of uric acid measurement kit (Uric acid C-Test Wako: manufactured by Wako pure chemical), and percent decrease in uric acid was calculated according to the formula described below. Percent decrease in uric acid (%)=(Serum uric acid levels in control animals−Serum uric acid levels in animals administered test compounds)×100/Serum uric acid levels in control animals (2) Results

T1 sequence (P80457 whole entry): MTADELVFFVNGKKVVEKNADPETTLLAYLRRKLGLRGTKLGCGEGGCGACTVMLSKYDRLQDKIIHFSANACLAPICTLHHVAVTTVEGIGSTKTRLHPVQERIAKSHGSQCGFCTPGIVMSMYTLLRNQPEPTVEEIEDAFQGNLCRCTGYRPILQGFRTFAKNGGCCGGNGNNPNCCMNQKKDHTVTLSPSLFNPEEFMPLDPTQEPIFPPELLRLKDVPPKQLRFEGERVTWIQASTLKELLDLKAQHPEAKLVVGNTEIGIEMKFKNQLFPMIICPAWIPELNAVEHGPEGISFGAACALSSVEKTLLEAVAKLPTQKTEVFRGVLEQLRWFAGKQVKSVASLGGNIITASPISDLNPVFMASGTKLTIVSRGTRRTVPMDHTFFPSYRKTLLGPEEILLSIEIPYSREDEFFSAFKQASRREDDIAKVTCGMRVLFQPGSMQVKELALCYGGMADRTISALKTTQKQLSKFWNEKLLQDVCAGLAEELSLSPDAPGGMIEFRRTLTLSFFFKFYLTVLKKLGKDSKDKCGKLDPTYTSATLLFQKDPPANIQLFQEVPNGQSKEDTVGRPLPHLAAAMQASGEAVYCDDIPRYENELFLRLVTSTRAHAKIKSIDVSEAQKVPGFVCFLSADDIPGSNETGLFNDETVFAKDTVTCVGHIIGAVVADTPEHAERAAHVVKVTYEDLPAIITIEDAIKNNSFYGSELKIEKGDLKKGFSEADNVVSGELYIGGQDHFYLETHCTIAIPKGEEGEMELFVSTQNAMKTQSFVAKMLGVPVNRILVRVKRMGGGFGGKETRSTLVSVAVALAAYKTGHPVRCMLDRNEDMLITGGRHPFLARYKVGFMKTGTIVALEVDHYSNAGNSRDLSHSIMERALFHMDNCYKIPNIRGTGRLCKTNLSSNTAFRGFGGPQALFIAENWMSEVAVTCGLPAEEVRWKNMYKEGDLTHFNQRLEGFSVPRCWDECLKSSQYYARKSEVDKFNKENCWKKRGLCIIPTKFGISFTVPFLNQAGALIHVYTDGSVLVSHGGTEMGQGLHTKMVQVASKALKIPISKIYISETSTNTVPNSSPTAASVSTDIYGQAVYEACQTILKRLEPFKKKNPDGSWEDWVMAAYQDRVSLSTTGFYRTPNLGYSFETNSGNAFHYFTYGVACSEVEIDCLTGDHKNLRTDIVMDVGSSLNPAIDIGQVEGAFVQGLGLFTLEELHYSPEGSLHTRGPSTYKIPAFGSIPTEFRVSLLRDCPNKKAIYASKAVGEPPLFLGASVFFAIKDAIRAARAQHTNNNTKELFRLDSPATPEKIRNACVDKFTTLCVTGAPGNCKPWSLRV

Structure (SMILES) | IC50 [1] [nM] | inhibition at 10 µM (human URAT1) [%] | general condition (Acute toxicity test) | percent decrease in uric acid [2]
N#Cc1cc(-c2ccc(C(=O)O)c(O)c2)c2cccnn12 [Example 2, 4-(7-Cyanopyrrolo[1,2-b]pyridazine-5-yl)-2-hydroxy benzoic acid] | 5 | – | no abnormalities in general conditions were observed | –
COc1ccc2c(-c3ccc(C(=O)O)c(O)c3)cc(C#N)n2n1 [Example 6] | 3 | ≥ 50 | – | –
N#Cc1cc(-c2ccc(C(=O)O)c(O)c2)n2ncccc12 [Example 12] | 4 | ≥ 50 | no abnormalities in general conditions were observed | –
Cc1ccc2c(-c3ccc(C(=O)O)c(O)c3)cc(C#N)n2c1C [Example 16] | 13 | ≥ 50 | – | –
N#Cc1cc(-c2ccc(C(=O)O)c(O)c2)c2ccc(F)cn12 [Example 9] | 4 | ≥ 50 | – | –
Cc1ccc2c(-c3ccc(C(=O)O)c(O)c3)cc(C#N)n2n1 [Example 3] | 5 | ≥ 50 | – | not less than 60%

More lines, main results first:

IC50 [1] [nM] | inhibition at 10 µM (human URAT1) [%] | Structure (SMILES) | general condition (Acute toxicity test) | percent decrease in uric acid [2]
8 | – | N#Cc1cc(-c2ccc(C(=O)O)cc2)c2ccccn12 [Example 7] | – | –
10 | – | N#Cc1cn(-c2ccc(C(=O)O)c(O)c2)c2cccnc12 [Example 15, 4-(3-Cyanopyrrolo[3,2-b]pyridine-1-yl)-2-hydroxy benzoic acid] | – | –
12 | – | N#Cc1cc(-c2ccc(C(=O)O)cc2)n2ncccc12 [Example 10] | – | –
10 | – | Cc1ccnn2c(-c3ccc(C(=O)O)cc3)cc(C#N)c12 [Example 11, 4-(5-Cyano-4-methylpyrrolo[1,2-b]pyridazine-7-yl)benzoic acid] | – | –
7 | – | N#Cc1cc(-c2ccc(C(=O)O)cc2)c2cccnn12 [Example 1, 4-(7-Cyanopyrrolo[1,2-b]pyridazine-5-yl)benzoic acid] | – | –
12 | ≥ 50 | N#Cc1cc(-c2ccc(C(=O)O)c(O)c2)c2ccccn12 [Example 8] | – | –
